In patent US20120270819A1, “USE OF COMPOUNDS WITH SGLT-1/SGLT-2 INHIBITOR ACTIVITY FOR PRODUCING MEDICAMENTS FOR TREATMENT OF BONE DISEASE” (SANOFI, priority 2009, published 2012):

Test system: female Sprague-Dawley mature and young adult rats
Assay: Ex vivo peripheral quantitative computed tomography (pQCT) of right femur (metaphysis, diaphysis, length)
Type: in vivo, rat
Details: Mature Adults; for pQCT femur (diaphysis) CSMI / pQCT femur (diaphysis) Cortical Area / pQCT femur (diaphysis) Cortical BMC / pQCT femur (diaphysis) Cortical BMD / pQCT femur (diaphysis) Cortical Thickness / pQCT femur (diaphysis) Endosteal Circumference / pQCT femur (diaphysis) Periosteal Circumference / pQCT femur (diaphysis) Total Area / pQCT femur (diaphysis) Total BMC / pQCT femur (diaphysis) Total BMD / pQCT femur Length / pQCT femur metaphysis C/SC (Cortical/Subcortical) BMC / pQCT femur metaphysis C/SC (Cortical/Subcortical) BMD / pQCT femur metaphysis Total Area / pQCT femur metaphysis Total BMC / pQCT femur metaphysis Total BMD / pQCT femur metaphysis Trabecular BMC / pQCT femur metaphysis Trabecular BMD: mean
Experimental: The following were evaluated: clinical signs (at least weekly), body weight (weekly), food consumption (weekly), hormones (Days 13 and 27), serum and urinary biochemical markers of bone turnover (Days 13 and 27), serum chemistry (at necropsy), bone densitometry by dual energy X-ray absorptiometry (DXA) and peripheral quantitative computed tomography (pQCT) (Week 2 and 4, as well as ex vivo), macroscopic observations at necropsy, organ weights, histopathology, biomechanical strength testing and femoral length measurements.
3.2 Ex Vivo Peripheral Quantitative Computed Tomography (pQCT)
Peripheral QCT scans were performed ex vivo using an XCT Research SA or SA+ bone scanner with software version 5.50D. Scans were obtained for the right femur, L3 and L4 lumbar vertebra for all animals euthanized at the end of the treatment period as well as two found dead animals. These two animals were scanned twice due to technical oversight, however only the first scans obtained were reported and the second scans were kept with the study file, this had no impact on the study as both scans were considered equivalent.
For the femurs, the scanned site was at the expected 3-point bending fracture site (diaphysis). This site was analyzed using Cortmode 2 for cortical bone measurements only (Table 5). An additional slice was obtained in the metaphysis. The metaphysis scan was not performed for the femur of three animals due to condyles detachment from the femur during trimming.
The femoral length was measured as part of the ex vivo pQCT scanning procedures and was reported for the right femur of all animals with the exception of 3 animas due to damaged femoral condyles.
All analyses were performed using the LOOP option of the analysis software. All other data generated as a result of the LOOP option were retained with the raw data but not reported. The most appropriate analysis mode for the femur and the lumbar vertebrae was used and documented in the raw data and the analysis details are presented in Table 6. All scan analysis data was retained and re-analyses documented.

COc1ccc(Cc2c(OC3OC(CO)C(F)C(O)C3O)n[nH]c2C(F)(F)F)cc1 (stereo not drawn) [Example 5 of formula II]
pQCT femur (diaphysis) CSMI, percent difference from Vehicle Control (10 mg/kg/day): 5.7% | pQCT femur (diaphysis) Cortical Area, percent difference from Vehicle Control (10 mg/kg/day): 2.3% | pQCT femur (diaphysis) Cortical BMC, percent difference from Vehicle Control (10 mg/kg/day): 2.7% | pQCT femur (diaphysis) Cortical BMD, percent difference from Vehicle Control (10 mg/kg/day): 0.5% | pQCT femur (diaphysis) Cortical Thickness, percent difference from Vehicle Control (10 mg/kg/day): 0.6% | pQCT femur (diaphysis) Endosteal Circumference, percent difference from Vehicle Control (10 mg/kg/day): 2.3% | pQCT femur (diaphysis) Periosteal Circumference, percent difference from Vehicle Control (10 mg/kg/day): 1.0% | pQCT femur (diaphysis) Total Area, percent difference from Vehicle Control (10 mg/kg/day): 3.1% | pQCT femur (diaphysis) Total BMC, percent difference from Vehicle Control (10 mg/kg/day): 3.0% | pQCT femur (diaphysis) Total BMD, percent difference from Vehicle Control (10 mg/kg/day): 0.1% | pQCT femur Length, percent difference from Vehicle Control (10 mg/kg/day): −0.4% | pQCT femur metaphysis C/SC BMC, percent difference from Vehicle Control (10 mg/kg/day): 6.2% | pQCT femur metaphysis C/SC BMD, percent difference from Vehicle Control (10 mg/kg/day): 2.0% | pQCT femur metaphysis Total Area, percent difference from Vehicle Control (10 mg/kg/day): 4.4% | pQCT femur metaphysis Total BMC, percent difference from Vehicle Control (10 mg/kg/day): 7.8% | pQCT femur metaphysis Total BMD, percent difference from Vehicle Control (10 mg/kg/day): 3.5% | pQCT femur metaphysis Trabecular BMC, percent difference from Vehicle Control (10 mg/kg/day): 14.7% | pQCT femur metaphysis Trabecular BMD, percent difference from Vehicle Control (10 mg/kg/day): 9.9% | pQCT femur (diaphysis) CSMI (10 mg/kg/day): 5.0 mm^4 | pQCT femur (diaphysis) Cortical Area (10 mg/kg/day): 6.5 mm^2 | pQCT femur (diaphysis) Cortical BMC (10 mg/kg/day): 8.5 mg/mm | pQCT femur (diaphysis) Cortical BMD (10 mg/kg/day): 1312.6 mg/cm^3 | pQCT femur (diaphysis) Cortical Thickness (10 mg/kg/day): 0.76 mm | pQCT femur (diaphysis) Endosteal Circumference (10 mg/kg/day): 6.2 mm | pQCT femur (diaphysis) Periosteal Circumference (10 mg/kg/day): 10.8 mm | pQCT femur (diaphysis) Total Area (10 mg/kg/day): 9.6 mm^2 | pQCT femur (diaphysis) Total BMC (10 mg/kg/day): 9.1 mg/mm | pQCT femur (diaphysis) Total BMD (10 mg/kg/day): 955.6 mg/cm^3 | pQCT femur Length (10 mg/kg/day): 37.0 mm | pQCT femur metaphysis C/SC (Cortical/Subcortical) BMC (10 mg/kg/day): 10.1 mg/mm | pQCT femur metaphysis C/SC (Cortical/Subcortical) BMD (10 mg/kg/day): 1054.0 mg/cm^3 | pQCT femur metaphysis Total Area (10 mg/kg/day): 16.0 mm^2 | pQCT femur metaphysis Total BMC (10 mg/kg/day): 12.6 mg/mm | pQCT femur metaphysis Total BMD (10 mg/kg/day): 791.1 mg/cm^3 | pQCT femur metaphysis Trabecular BMC (10 mg/kg/day): 2.5 mg/mm | pQCT femur metaphysis Trabecular BMD (10 mg/kg/day): 396.9 mg/cm^3 | pQCT femur (diaphysis) CSMI, percent difference from Vehicle Control (50 mg/kg/day): −3.0% | pQCT femur (diaphysis) Cortical Area, percent difference from Vehicle Control (50 mg/kg/day): 0.2% | pQCT femur (diaphysis) Cortical BMC, percent difference from Vehicle Control (50 mg/kg/day): 1.2% | pQCT femur (diaphysis) Cortical BMD, percent difference from Vehicle Control (50 mg/kg/day): 1.0% | pQCT femur (diaphysis) Cortical Thickness, percent difference from Vehicle Control (50 mg/kg/day): 3.5% | pQCT femur (diaphysis) Endosteal Circumference, percent difference from Vehicle Control (50 mg/kg/day): −5.6% | pQCT femur (diaphysis) Periosteal Circumference, percent difference from Vehicle Control (50 mg/kg/day): −2.1% | pQCT femur (diaphysis) Total Area, percent difference from Vehicle Control (50 mg/kg/day): −3.4% | pQCT femur (diaphysis) Total BMC, percent difference from Vehicle Control (50 mg/kg/day): 0.0% | pQCT femur (diaphysis) Total BMD, percent difference from Vehicle Control (50 mg/kg/day): 3.5% | pQCT femur Length, percent difference from Vehicle Control (50 mg/kg/day): −0.4% | pQCT femur metaphysis C/SC BMC, percent difference from Vehicle Control (50 mg/kg/day): 4.0% | pQCT femur metaphysis C/SC BMD, percent difference from Vehicle Control (50 mg/kg/day): 7.0% | pQCT femur metaphysis Total Area, percent difference from Vehicle Control (50 mg/kg/day): −2.7% | pQCT femur metaphysis Total BMC, percent difference from Vehicle Control (50 mg/kg/day): 5.1% | pQCT femur metaphysis Total BMD, percent difference from Vehicle Control (50 mg/kg/day): 8.0% | pQCT femur metaphysis Trabecular BMC, percent difference from Vehicle Control (50 mg/kg/day): 9.7% | pQCT femur metaphysis Trabecular BMD, percent difference from Vehicle Control (50 mg/kg/day): 12.3% | pQCT femur (diaphysis) CSMI (50 mg/kg/day): 4.6 mm^4 | pQCT femur (diaphysis) Cortical Area (50 mg/kg/day): 6.4 mm^2 | pQCT femur (diaphysis) Cortical BMC (50 mg/kg/day): 8.4 mg/mm | pQCT femur (diaphysis) Cortical BMD (50 mg/kg/day): 1319.4 mg/cm^3 | pQCT femur (diaphysis) Cortical Thickness (50 mg/kg/day): 0.78 mm | pQCT femur (diaphysis) Endosteal Circumference (50 mg/kg/day): 5.7 mm | pQCT femur (diaphysis) Periosteal Circumference (50 mg/kg/day): 10.4 mm | pQCT femur (diaphysis) Total Area (50 mg/kg/day): 9.0 mm^2 | pQCT femur (diaphysis) Total BMC (50 mg/kg/day): 8.8 mg/mm | pQCT femur (diaphysis) Total BMD (50 mg/kg/day): 988.0 mg/cm^3 | pQCT femur Length (50 mg/kg/day): 37.0 mm | pQCT femur metaphysis C/SC (Cortical/Subcortical) BMC (50 mg/kg/day): 9.9 mg/mm | pQCT femur metaphysis C/SC (Cortical/Subcortical) BMD (50 mg/kg/day): 1105.5 mg/cm^3 | pQCT femur metaphysis Total Area (50 mg/kg/day): 14.9 mm^2 | pQCT femur metaphysis Total BMC (50 mg/kg/day): 12.3 mg/mm | pQCT femur metaphysis Total BMD (50 mg/kg/day): 825.3 mg/cm^3 | pQCT femur metaphysis Trabecular BMC (50 mg/kg/day): 2.4 mg/mm | pQCT femur metaphysis Trabecular BMD (50 mg/kg/day): 405.3 mg/cm^3
